Test results reported in US10150760B2, “Compounds for use in preparing heterocyclic triazole agonists of the APJ receptor” (AMGEN INC., priority 2016, dated 2018).

Target: human APJ receptor (Homo sapiens (Human), UniProt P35414)
Assay: [35S]GTPγS binding assay on membranes from CHO cells stably expressing human APJ receptor
Type: biochemical
Conditions: read-out: Activity hAPJ SPA EC50 IP
In short: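 Membranes from CHO cells stably expressing human APJ incubated with ligand, 0.2 nM [35S]GTPγS and WGA SPA beads in HEPES pH 7.5 with 5 mM MgCl2, 200 mM NaCl, 3 μM GDP, 90 min at RT. Nonspecific binding defined with 100 μM GTPγS; EC50 by non-linear regression.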

Chain of human APJ receptor (P35414 whole entry): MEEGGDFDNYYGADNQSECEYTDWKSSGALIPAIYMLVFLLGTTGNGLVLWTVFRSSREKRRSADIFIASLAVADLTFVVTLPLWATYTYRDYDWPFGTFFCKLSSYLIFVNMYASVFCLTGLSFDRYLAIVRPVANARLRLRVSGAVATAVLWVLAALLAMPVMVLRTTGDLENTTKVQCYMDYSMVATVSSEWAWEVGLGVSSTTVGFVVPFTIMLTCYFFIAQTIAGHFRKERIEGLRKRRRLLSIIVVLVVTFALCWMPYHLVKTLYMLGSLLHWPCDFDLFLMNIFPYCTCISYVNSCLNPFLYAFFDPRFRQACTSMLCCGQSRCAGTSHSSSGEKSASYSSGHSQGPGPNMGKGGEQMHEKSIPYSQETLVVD

Substance	EC50 [µM]
(1R,2S)-N-(4-(1,3-dimethoxy-2-propanyl)-5-((2R,5R)-5-methyltetrahydro-2-furanyl)-4H-1,2,4-triazol-3-yl)-1-methoxy-1-(5-methoxy-2-pyrazinyl)-2-propanesulfonamide or (1R,2S)-N-(4-(1,3-dimethoxy-2-propanyl)-5-((2S,5S)-5-methyltetrahydro-2-furanyl)-4H-1,2,4-triazol-3-yl)-1-methoxy-1-(5-methoxy-2-pyrazinyl)-2-propanesulfonamide [Example 379.0]	0.021
(1R,2S)-N-(4-(2,6-dimethoxyphenyl)-5-((R)-1,4-dioxan-2-yl)-4H-1,2,4-triazol-3-yl)-1-ethoxy-1-(5-methylpyrimidin-2-yl)propane-2-sulfonamide or (1R,2S)-N-(4-(2,6-dimethoxyphenyl)-5-((S)-1,4-dioxan-2-yl)-4H-1,2,4-triazol-3-yl)-1-ethoxy-1-(5-methylpyrimidin-2-yl)propane-2-sulfonamide [Example 203.0]	0.033
(1R,2S)-N-(4-(2,6-dimethoxyphenyl)-5-((R)-1,4-dioxan-2-yl)-4H-1,2,4-triazol-3-yl)-1-ethoxy-1-(5-methylpyrimidin-2-yl)propane-2-sulfonamide or (1R,2S)-N-(4-(2,6-dimethoxyphenyl)-5-((S)-1,4-dioxan-2-yl)-4H-1,2,4-triazol-3-yl)-1-ethoxy-1-(5-methypyrimidin-2-yl)propane-2-sulfonamide [Example 204.0]	0.1
(1R,2S)-N-(4-(2,6-dimethoxyphenyl)-5-((R)-1,4-dioxan-2-yl)-4H-1,2,4-triazol-3-yl)-1-methoxy-1-(5-methylpyrimidin-2-yl)propane-2-sulfonamide or (1R,2S)-N-(4-(2,6-dimethoxyphenyl)-5-((S)-1,4-dioxan-2-yl)-4H-1,2,4-triazol-3-yl)-1-methoxy-1-(5-methylpyrimidin-2-yl)propane-2-sulfonamide [Example 202.0]	0.12
(1R,2S)-N-(4-(2,6-dimethoxyphenyl)-5-((S)-3-oxoisoindolin-1-yl)-4H-1,2,4-triazol-3-yl)-1-methoxy-1-(5-methylpyrimidin-2-yl)propane-2-sulfonamide or (1R,2S)-N-(4-(2,6-dimethoxyphenyl)-5-((R)-3-oxoisoindolin-1-yl)-4H-1,2,4-triazol-3-yl)-1-methoxy-1-(5-methylpyrimidin-2-yl)propane-2-sulfonamide [Example 236.0]	> 4.2
(1R,2S)-N-(4-(2,6-dimethoxyphenyl)-5-((S)-3-oxoisoindolin-1-yl)-4H-1,2,4-triazol-3-yl)-1-methoxy-1-(5-methylpyrimidin-2-yl)propane-2-sulfonamide or (1R,2S)-N-(4-(2,6-dimethoxyphenyl)-5-((R)-3-oxoisoindolin-1-yl)-4H-1,2,4-triazol-3-yl)-1-methoxy-1-(5-methylpyrimidin-2-yl)propane-2-sulfonamide [Example 237.0]	0.59
(1R,2S)-N-(4-(2,6-dimethoxyphenyl)-5-((S)-tetrahydro-2H-pyran-3-yl)-4H-1,2,4-triazol-3-yl)-1-hydroxy-1-(5-methylpyrimidin-2-yl)propane-2-sulfonamide or (1R,2S)-N-(4-(2,6-dimethoxyphenyl)-5-((R)-tetrahydro-2H-pyran-3-yl)-4H-1,2,4-triazol-3-yl)-1-hydroxy-1-(5-methylpyrimidin-2-yl)propane-2-sulfonamde [Example 194.0]	0.02
(1R,2S)-N-(4-(2,6-dimethoxyphenyl)-5-((S)-tetrahydro-2H-pyran-3-yl)-4H-1,2,4-triazol-3-yl)-1-hydroxy-1-(5-methylpyrimidin-2-yl)propane-2-sulfonamide or (1R,2S)-N-(4-(2,6-dimethoxyphenyl)-5-((R)-tetrahydro-2H-pyran-3-yl)-4H-1,2,4-triazol-3-yl)-1-hydroxy-1-(5-methylpyrimidin-2-yl)propane-2-sulfonamide [Example 193.0]	0.18
(1R,2S)-N-(4-(4,6-dimethoxypyrimidin-5-yl)-5-((S)-tetrahydrofuran-2-yl)-4H-1,2,4-triazol-3-yl)-1-methoxy-1-(5-methylpyrazin-2-yl)propane-2-sulfonamide or (1R,2S)-N-(4-(4,6-dimethoxypyrimidin-5-yl)-5-((R)-tetrahydrofuran-2-yl)-4H-1,2,4-triazol-3-yl)-1-methoxy-1-(5-methylpyrazin-2-yl)propane-2-sulfonamide [Example 185.0]	0.51
(1R,2S)-N-(4-(4,6-dimethoxypyrimidin-5-yl)-5-((S)-tetrahydrofuran-2-yl)-4H-1,2,4-triazol-3-yl)-1-methoxy-1-(5-methylpyrazin-2-yl)propane-2-sulfonamide or (1R,2S)-N-(4-(4,6-dimethoxypyrimidin-5-yl)-5-((R)-tetrahydrofuran-2-yl)-4H-1,2,4-triazol-3-yl)-1-methoxy-1-(5-methylpyrazin-2-yl)propane-2-sulfonamide [Example 186.0]	0.08
(1R,2S)-N-(4-([1,1′-bi(cyclopropyl)]-1-yl)-5-((2R)-1,4-dioxan-2-yl)-4H-1,2,4-triazol-3-yl)-1-methoxy-1-(5-methyl-2-pyrazinyl)-2-propanesulfonamide or (1R,2S)-N-(4-([1,1′-bi(cyclopropyl)]-1-yl)-5-((2S)-1,4-dioxan-2-yl)-4H-1,2,4-triazol-3-yl)-1-methoxy-1-(5-methyl-2-pyrazinyl)-2-propanesulfonamide [Example 328.0]	0.23
(1R,2S)-N-(4-([1,1′-bi(cyclopropyl)]-1-yl)-5-((2R)-1,4-dioxan-2-yl)-4H-1,2,4-triazol-3-yl)-1-methoxy-1-(5-methyl-2-pyrazinyl)-2-propanesulfonamide or (1R,2S)-N-(4-([1,1′-bi(cyclopropyl)]-1-yl)-5-((2S)-1,4-dioxan-2-yl)-4H-1,2,4-triazol-3-yl)-1-methoxy-1-(5-methyl-2-pyrazinyl)-2-propanesulfonamide [Example 329.0]	1.3
(1R,2S)-N-(4-([1,1′-bi(cyclopropyl)]-1-yl)-5-((2S)-1,4-dioxan-2-yl)-4H-1,2,4-triazol-3-yl)-1-(5-chloro-2-pyrimidinyl)-1-methoxy-2-propanesulfonamide or (1R,2S)-N-(4-([1,1′-bi(cyclopropyl)]-1-yl)-5-((2R)-1,4-dioxan-2-yl)-4H-1,2,4-triazol-3-yl)-1-(5-chloro-2-pyrimidinyl)-1-methoxy-2-propanesulfonamide [Example 325.0]	0.014
(1R,2S)-N-(4-([1,1′-bi(cyclopropyl)]-1-yl)-5-((2S)-1,4-dioxan-2-yl)-4H-1,2,4-triazol-3-yl)-1-(5-chloro-2-pyrimidinyl)-1-methoxy-2-propanesulfonamide or (1R,2S)-N-(4-([1,1′-bi(cyclopropyl)]-1-yl)-5-((2R)-1,4-dioxan-2-yl)-4H-1,2,4-triazol-3-yl)-1-(5-chloro-2-pyrimidinyl)-1-methoxy-2-propanesulfonamide [Example 326.0]	1.7
(1R,2S)-N-(5-((R)-1,4-dioxan-2-yl)-4-(1-(pyridin-3-yl)cyclopropyl)-4H-1,2,4-triazol-3-yl)-1-(5-chloropyrimidin-2-yl)-1-methoxypropane-2-sulfonamide or (1R,2S)-N-(5-((S)-1,4-dioxan-2-yl)-4-(1-(pyridin-3-yl)cyclopropyl)-4H-1,2,4-triazol-3-yl)-1-(5-chloropyrimidin-2-yl)-1-methoxypropane-2-sulfonamide [Example 295.0]	0.016
(1R,2S)-N-(5-((R)-1,4-dioxan-2-yl)-4-(1-(pyridin-3-yl)cyclopropyl)-4H-1,2,4-triazol-3-yl)-1-(5-chloropyrimidin-2-yl)-1-methoxypropane-2-sulfonamide or (1R,2S)-N-(5-((S)-1,4-dioxan-2-yl)-4-(1-(pyridin-3-yl)cyclopropyl)-4H-1,2,4-triazol-3-yl)-1-(5-chloropyrimidin-2-yl)-1-methoxypropane-2-sulfonamide [Example 296.0]	0.17
(1R,2S)-N-(5-((R)-2,3-dihydrobenzofuran-2-yl)-4-(4,6-dimethoxypyrimidin-5-yl)-4H-1,2,4-triazol-3-yl)-1-methoxy-1-(5-methylpyrimidin-2-yl)propane-2-sulfonamide or (1R,2S)-N-(5-((S)-2,3-dihydrobenzofuran-2-yl)-4-(4,6-dimethoxypyrimidin-5-yl)-4H-1,2,4-triazol-3-yl)-1-methoxy-1-(5-methylpyrimidin-2-yl)propane-2-sulfonamide [Example 233.0]	1.27
(1R,2S)-N-(5-((R)-2,3-dihydrobenzofuran-3-yl)-4-(2,6-dimethoxyphenyl)-4H-1,2,4-triazol-3-yl)-1-methoxy-1-(5-methylpyrimidin-2-yl)propane-2-sulfonamide or (1R,2S)-N-(5-((S)-2,3-dihydrobenzofuran-3-yl)-4-(2,6-dimethoxyphenyl)-4H-1,2,4-triazol-3-yl)-1-methoxy-1-(5-methylpyrimidin-2-yl)propane-2-sulfonamide [Example 238.0]	0.81
(1R,2S)-N-(5-((R)-2,3-dihydrobenzofuran-3-yl)-4-(2,6-dimethoxyphenyl)-4H-1,2,4-triazol-3-yl)-1-methoxy-1-(5-methylpyrimidin-2-yl)propane-2-sulfonamide or (1R,2S)-N-(5-((S)-2,3-dihydrobenzofuran-3-yl)-4-(2,6-dimethoxyphenyl)-4H-1,2,4-triazol-3-yl)-1-methoxy-1-(5-methylpyrimidin-2-yl)propane-2-sulfonamide [Example 239.0]	0.033
(1R,2S)-N-(5-((S)-1,4-dioxan-2-yl)-4-(1-(methoxymethyl)cyclopropyl)-4H-1,2,4-triazol-3-yl)-1-(5-chloropyrimidin-2-yl)-1-methoxypropane-2-sulfonamide or (1R,2S)-N-(5-((R)-1,4-dioxan-2-yl)-4-(1-(methoxymethyl)cyclopropyl)-4H-1,2,4-triazol-3-yl)-1-(5-chloropyrimidin-2-yl)-1-methoxypropane-2-sulfonamide [Example 341.0]	1.21
